Laboratory results published in patent US20150344535A1, “NEUROTROPHIN-TYROSINE KINASE RECEPTOR SIGNALING” (THE UNIVERSITY OF QUEENSLAND, priority 2012, published 2015).
Entries after “also recorded” stand apart in the source; their conditions may differ.

How the values were obtained:
[1] = test system: TrkB-expressing cortical neurons; test: Western blot of phosphorylated Erk1/2 in BDNF-treated cortical neurons; assay type: cell-based; conditions: E16 cultured cortical neurons, 15 minutes after BDNF treatment
p75^FL = biological target: T1, p75^FL (Rattus norvegicus, UniProt P07174); test: NGF-FITC binding by flow cytometry, p75^FL-transfected HEK293 cells
T1 construct: p75^FL—full-length p75^NTR; expressed in transfected cells; host or cells: HEK293
T1 sequence (P07174 30-425): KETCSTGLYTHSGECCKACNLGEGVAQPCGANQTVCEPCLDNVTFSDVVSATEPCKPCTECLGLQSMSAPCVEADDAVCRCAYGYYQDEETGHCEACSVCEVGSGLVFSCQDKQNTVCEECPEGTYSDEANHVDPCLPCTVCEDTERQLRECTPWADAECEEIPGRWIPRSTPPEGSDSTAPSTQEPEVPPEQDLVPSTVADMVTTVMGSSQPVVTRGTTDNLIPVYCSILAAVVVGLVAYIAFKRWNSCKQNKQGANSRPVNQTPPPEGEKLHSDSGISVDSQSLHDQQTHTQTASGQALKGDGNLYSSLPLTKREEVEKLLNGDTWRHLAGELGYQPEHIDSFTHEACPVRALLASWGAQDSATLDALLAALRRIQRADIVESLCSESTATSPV
Description: (§1) The NGF was conjugated to FITC by standard methods and detailed flow cytometry acquisition and analysis. For NGF-FITC conjugation 400 μg βNGF in 200 μl pH 8.5 NaHCO3 buffer was mixed with 5-10 μl of 10 mg/ml FITC in 100 μl DMSO for 10 hours at 4° C. on an orbital shaker set to 100 rpm. The excess FITC was removed by dialysis against 3 changes of 5 L of 10 mM Tris, 150 mM NaCl, 0.2% acetic acid, pH 8.2 for 24 hours at 4° C. Conjugate F/P characterization was determined by measuring absorbance at 280 nm and 495 nm according to manufacturer's instructions. Biological activity of the NGF-FITC conjugate was tested by performing PC12 cell neurite outgrowth assays unlabelled NGF, and comparing the levels of neuritogenesis. NGF-FITC conjugates were used within 4 weeks of synthesis.
(§2) For the flow cytometry NGF binding assays, fluorescence cell parameters of at least 20,000 events for PC12 cells and 100,000 events for HEK293 cells were acquired by flow cytometry list mode and measurements were performed on a single cell basis (with compensation for double event counting). Dead cells and debris were gated out of the analysis on the basis of forward scatter fluorescence, and mean, median and maximal fluorescence values of the gated cell populations were analysed using FACS Diva Software (Becton-Dickinson Biosciences) and FACS Express Software (Becton-Dickinson Biosciences).
(§3) Background fluorescence of HEK293 cells was non-transfected cells (±c29 or scrambled peptide treatment) treated with 26 nM NGF-FITC. For PC12 cells, the control population was cells that had not been treated with NGF-FITC. Analysis of real-time NGF-FITC receptor binding experiments was performed on 550,000-600,000 cells at 4° C. in serum free NB medium and binding kinetics were calculated from raw data files compressed to 50,000 binding events using FlowJo and MatLab Software. Data was plotted with the use of GraphPad Prism.
(§4) Only NGF-FITC preparations that promoted equivalent neurite outgrowth of PC12 cells to that of unlabelled NGF were used in binding experiments. To investigate NGF binding, PC12 or transfected HEK293 cells were serum starved for 4 hours, harvested, washed with Dulbecco's Modified Eagle Medium (DMEM), and counted. When used, c29 or scrambled peptide were added to cultures for the third hour of the serum starvation procedure. 1×10^7 cells/ml suspended in 500 μl of serum-free DMEM were incubated with 26 nM NGF-FITC on ice for 60 minutes before analysis. For binding competition assays, following 1 hour in NGF-FITC, cells were washed with ice-cold PBS containing 0.1% normal bovine serum and incubated on ice with unlabeled NGF at concentrations ranging from 100 pM to 10 μM for 30 minutes, then washed twice in PBS before being analysed on a BD Flow Cytometer FACS Scan (Becton-Dickinson).
To determine association rates, cells were harvested as above following serum starvation and peptide treatment, and were resuspended in 3 ml of serum-free Neurobasal (NB) medium containing […] (Invitrogen) and […] nonessential amino acids, prior to analysis on the flow cytometer. Cells were analysed for 30 seconds prior to the addition of 26 nM NGF-FITC, and then for 30 minutes in real time with an analysis rate of 200-300 events/sec.

[2] = Fear extinction / return of fear in mice; assay type: in vivo, mouse; conditions: female mice, infusion into infralimbic prefrontal cortex, VEH RET vs C29 RET, FIG. 12
Excerpt: Baker-Andresen et al. Learn Mem. 2013 Apr. 15; 20(5):237-40.
Following fear conditioning (Example 17), exposure to the tone without the shock is termed extinction (removal of the memory).
Researchers can time the duration of this response. Repeated exposure to the tone without the shock is termed extinction (removal of the memory).

PC12 cells [3] = test: PC12 cell neurite outgrowth in response to EGF; assay type: cell-based; conditions: vs no peptide or scrambled peptide
Description: To assess the effect of p75^NTR constructs (FIG. 2) or c29 peptide on TrkA-mediated neuritogenesis, transfected PC12 cells were grown in the presence of 100 ng/ml NGF for 3 days, with fresh medium and NGF treatments added on day 2. Cells were then imaged live on an Olympus (IX81) microscope fitted with a CO2 atmospheric chamber, using analySIS software. Four random images of 80-100 cells were taken for each treatment condition and images were determined by measuring polygon neurite length of all cells in each image. Data analysis was performed using Graphpad PRISM.
To determine whether the effect of the c29 peptide on enhancement of neurite outgrowth was NGF and TrkA specific, we repeated the experiment using EGF to stimulate differentiation.

PC12 cells [4] = test: NGF-FITC binding by flow cytometry, PC12 cells; conditions: for % of cell population with FITC above background / Maximal fluorescence per cell of the population / Mean fluorescence per FITC-positive cell / Median population fluorescence: NGF-FITC
Description: as §1, §2, §3, §4
First, to determine the concentration of c29 required to modulate NGF binding, c29 levels were titrated with a fixed concentration of NGF-FITC.

[5] = 26 nM NGF-FITC 60 minutes, c.f. p75^FL alone

KRWNSCKQNKQGANSRPVNQTPPPEGEKL (c29- Fragment of p75ICD) [29 amino acid peptide of the p75NTR juxtamembrane Chopper domain; delivered to cells linked to PTD4 or disulfide-linked carrier]
phosphorylated Erk1/2 in response to BDNF [1]: enhanced trophic signaling
% of cell population with FITC above background (p75^FL; [5]): 100.5 ± 14.2%
Maximal fluorescence per cell of the population (p75^FL; [5]): 98.7 ± 4.3%
Mean fluorescence per FITC-positive cell (p75^FL; [5]): 105.2 ± 3.6%
Median population fluorescence (p75^FL; [5]): 103.8 ± 11.2%
half time of NGF-FITC binding (p75^FL; 26 nM NGF-FITC, cells treated with c29): 7.1 min
fluorescence profile of the population (p75^FL; pre-treated with c29, NGF-FITC): did not change
return of fear [2]: prevents the return of fear; also recorded: blocked the return of fear
neuritogenesis in EGF-treated cultures (PC12 cells [3]): no effect on neuritogenesis
% of cell population with FITC above background (PC12 cells [4]; c.f. PC12): 115.7 ± 19.7%
Maximal fluorescence per cell of the population (PC12 cells [4]; c.f. PC12): 123.6 ± 17.3%
Mean fluorescence per FITC-positive cell (PC12 cells [4]; c.f. PC12): 126.3 ± 4.8%
Median population fluorescence (PC12 cells [4]; c.f. PC12): 127.4 ± 8.1%
% of cell population with FITC above background (PC12 cells [4]; c.f. PC12 + SC): 115.3 ± 13.4%
Maximal fluorescence per cell of the population (PC12 cells [4]; c.f. PC12 + SC): 123.1 ± 5.2%
Mean fluorescence per FITC-positive cell (PC12 cells [4]; c.f. PC12 + SC): 121.4 ± 5.5%
Median population fluorescence (PC12 cells [4]; c.f. PC12 + SC): 122.5 ± 8.4%
all measured fluorescence parameters of the FITC-positive population (PC12 cells [4]; PC12 cells, compared to control or scrambled peptide-treated cells): increased
c29 concentration at which an increase in median fluorescence was observed (PC12 cells [4]; fixed concentration of NGF-FITC, FIG. 10A): 1 pM
